From ChEMBL document CHEMBL4177689, “In silico identification and in vivo characterization of small molecule therapeutic hypothermia mimetics” (Bioorg Med Chem, 2017)
Active and inactive are the calls of the source. No cut-off for these calls is given here.

Columns and labels:
Rattus norvegicus [1] = organism: Rattus norvegicus; assay: Activation of CIRBP protein expression in rat R28 cells at 10 uM at 37 degC after 4 days by Western blot; format: functional, cell-based
[2] = Cytotoxicity against rat R28 cells assessed as reduction in cell viability at 10 uM after 4 days by MTS assay; format: cell-based; details: 96 h
Rattus norvegicus [3] = assay: Up regulation of CIRBP protein expression in Sprague-Dawley albino rat heart at 20 nmol/kg, ip measured after 4 days post dose by Western blot analysis; format: functional, organism-based
Rattus norvegicus [4] = assay: Up regulation of CIRBP protein expression in Sprague-Dawley albino rat pancreas at 20 nmol/kg, ip measured after 4 days post dose by Western blot analysis; format: functional, organism-based
Rattus norvegicus [5] = assay: Up regulation of CIRBP protein expression in Sprague-Dawley albino rat lung at 20 nmol/kg, ip measured after 4 days post dose by Western blot analysis; format: functional, organism-based
Rattus norvegicus [6] = assay: Up regulation of CIRBP protein expression in Sprague-Dawley albino rat subcutaneous fat tissue at 20 nmol/kg, ip measured after 4 days post dose by Western blot analysis; format: functional, organism-based
Rattus norvegicus [7] = assay: Up regulation of CIRBP protein expression in Sprague-Dawley albino rat brain cortex at 20 nmol/kg, ip measured after 4 days post dose by Western blot analysis; format: functional, organism-based
Rattus norvegicus [8] = assay: Up regulation of CIRBP protein expression in Sprague-Dawley albino rat testis at 20 nmol/kg, ip measured after 4 days post dose by Western blot analysis; format: functional, organism-based
[9] = Cytotoxicity against rat R28 cells assessed as reduction in cell viability at 250 uM after 4 days by MTS assay; format: cell-based; details: 96 h
Rattus norvegicus [10] = assay: Up regulation of CIRBP protein expression in Sprague-Dawley albino rat central nervous system at 20 nmol/kg, ip measured after 4 days post dose by Western blot analysis; format: functional, organism-based
Rattus norvegicus [11] = assay: Up regulation of CIRBP protein expression in Sprague-Dawley albino rat retina at 20 nmol/kg, ip measured after 4 days post dose by Western blot analysis; format: functional, organism-based
Rattus norvegicus [12] = assay: Up regulation of CIRBP protein expression in Sprague-Dawley albino rat colon at 20 nmol/kg, ip measured after 4 days post dose by Western blot analysis; format: functional, organism-based

Row | SMILES | Activity (Rattus norvegicus [1]) | other results
1 | NC(=O)Oc1cccc(OC(N)=O)c1 | inactive | 
2 | C=CCn1cnc2c(SCC(=O)OC)nc(N)nc21 | inactive | 
3 | COc1cccc2c1C(=O)c1c(O)c3c(c(O)c1C2=O)CC(O)(/C(C)=N/O)CC3CC1CC(N)C(O)C(C)O1 (stereo not given) |  | Activity [2]: Toxic
4 | Oc1cc(NCC2CCCCC2)c(O)cc1CNC1CCCCC1 | inactive | 
5 | Oc1ccc(-c2cn(-c3ccc(O)c(C(F)(F)F)c3)nn2)cc1 | Active | 
6 | Oc1cccc(-c2cn(-c3ccc(O)c(F)c3)nn2)c1 | Active | 
7 | O=c1c(O)cccc2cc(O)c(O)c(O)c12 [PURPUROGALLIN] |  | Activity [2]: Toxic
8 | O=C(O)c1cc(-n2cc(-c3cccc(O)c3)nn2)ccc1O | inactive | 
9 | O=C(NO)[C@@H](Cc1ccccc1)NS(=O)(=O)c1ccc(-n2cc(-c3ccc(Oc4ccccc4)cc3)nn2)cc1 |  | Activity [2]: Toxic
10 | COCCn1cnc2c(SCC(=O)OC)nc(N)nc21 | inactive | 
11 | COC(=O)CSc1nc(N)nc2c1ncn2CCO | inactive | 
12 | O=C(/C=C/c1ccc(O)c(O)c1)OC1C(O)CC(OC(=O)/C=C/c2ccc(O)c(O)c2)(C(=O)O)CC1O (stereo not given) |  | Activity [2]: Toxic
13 | OCc1ncccc1O | inactive | 
14 | CC(=O)N1C(=O)C2(NCC(C)N2)c2ccccc21 (stereo not given) | inactive | 
15 | N=C(N)NC(=N)Nc1ccc(O)cc1 | inactive | 
16 | CC1(C)N=C(N)N=C(N)N1c1cccc(CN)c1 | inactive | 
17 | Cc1cc(O)ccc1-n1cc(-c2cccc(O)c2)nn1 | inactive | 
18 | COC(=O)C1C[C@@H](O)[C@@H](O)[C@@H](O)C1 (stereo not given in full) | inactive | 
19 | COC(=O)CSc1nc(N)nc2c1ncn2Cc1ccc(OC)cc1 | inactive | 
20 | Nc1ncnc2c1ncn2[C@@H]1O[C@H](CO)[C@H](O)[C@@H]1N | inactive | 
21 | COC(=O)CSc1nc(N)nc2c1ncn2Cc1ccccc1 | Active | 
22 | Nc1nc(SCC(=O)O)c2ncn(Cc3ccccc3)c2n1 | inactive | 
23 | COC(=O)CSc1nc(N)nc2c1ncn2CC1CC1 | inactive | 
24 | CCN(CC)CCn1cnc2c(SCC(=O)O)nc(N)nc21 | Active | Activity (Rattus norvegicus [3]): Active; Activity (Rattus norvegicus [4]): Active; Activity (Rattus norvegicus [5]): Active; Activity (Rattus norvegicus [6]): Active; Activity (Rattus norvegicus [7]): inactive; Activity (Rattus norvegicus [8]): Active; Activity [9]: Non-Toxic; Activity (Rattus norvegicus [10]): inactive; Activity (Rattus norvegicus [11]): inactive; Activity (Rattus norvegicus [12]): Active
25 | Cc1cc(-n2cc(-c3ccc(O)cc3)nn2)ccc1O | Active | 
